# Read-outs that look alike come from different tables or passages of the source. Marks after values point to notes of the source that are not given here.
# Experiments:
# [1] = male, Sprague Dawley, rat, microsomes
# Description: (§1) The final organic content in liver microsomal incubations was 0.5%.
# Liver microsomal protein (25 uL for 0.5 mg/mL; 15 uL for 0.3 mg/mL), NADPH (100 uL, 2 mM final concentration) and phosphate buffer (870 uL for 0.5 mg/mL; 880 uL for 0.3 mg/mL) were incubated in a microfuge tube in an orbital shaker incubator for 10 min maintained at 37° C. Reactions were initiated by spiking 5 uL of 2 mM and 0.2 mM 5-bromo-2,6-di(1H-pyrazol-1-yl)pyrimindin-4-amine([…]; […]; 0.5% final DMSO concentration) and samples incubated at 37° C. Aliquots (200 uL) were withdrawn from the reaction tube at 0, 60 and 120 minutes and the reaction was quenched by addition of 100 uL acetonitrile. Reactions were performed in duplicates. The quenched samples were centrifuged at 14000 rpm (approximately 21000 g) for 10 minutes(Eppendorf Centrifuge 5810 R) and supernatant was analyzed by LCMS/MS.
# (§2) Control incubations (no NADPH added) and blank incubations (no test item added) were performed in singlet for each species. These samples were withdrawn at 0 and 120 min and quenched using acetonitrile. The supernatant was analyzed for any non microsomal degradation and matrix interference. […] Reaction and control experiments were performed in singlet.
# [2] = Description: as §1
# Liver microsomal protein (25 uL for 0.5 mg/mL; 15 uL for 0.3 mg/mL), NADPH (100 uL, 2 mM final concentration) and phosphate buffer (870 uL for 0.5 mg/mL; 880 uL for 0.3 mg/mL) were incubated in a microfuge tube in an orbital shaker incubator for 10 min maintained at 37° C. Reactions were initiated by spiking 5 uL of 2 mM and 0.2 mM 5-bromo-2,6-di(1H-pyrazol-1-yl)pyrimindin-4-amine(10 uM final concentrations for 0.5 mg/mL protein; 1 uM final concentration for 0.3 mg/mL protein; 0.5% final DMSO concentration) and samples incubated at 37° C. Aliquots (200 uL) were withdrawn from the reaction tube at 0, 60 and 120 minutes and the reaction was quenched by addition of 100 uL acetonitrile. Reactions were performed in duplicates. The quenched samples were centrifuged at 14000 rpm (approximately 21000 g) for 10 minutes(Eppendorf Centrifuge 5810 R) and supernatant was analyzed by LCMS/MS.
# as §2
# [3] = target: T1, human adenosine A2A receptor (Homo sapiens, UniProt P29274); test: In vitro hA2A radioligand binding assay; conditions: [3H]-ZM241385 competition, HEK-293 membranes; Ki from IC50 by Cheng-Prusoff
# T1 construct: purchased Perkin Elmer RBHA2AM400UA; host or cells: HEK-293 cells stably expressing the receptor (membrane preparation)
# [4] = Mass balance determination in human liver microsomes (MRM analysis); assay type: in vitro ADME
# Description: (§3) Reactions were performed in duplicates.
# An aliquot (25 uL) of these samples were further diluted with 100 uL of internal standard (Haloperidol, 1 ug|mL in acetonitrile).
# The incubation samples were also prepared similar to that of the calibration standards by adding 25 uL of the quenched sample with 100 uL of internal standard.
# [5] = Liver microsomal incubations compared across tested species; assay type: in vitro ADME, rat, dog, human
# Description: as §3
# (§4) Reaction and control experiments were performed in singlet.
# [6] = assay type: in vitro ADME; conditions: for Percentage area ratio with respect to parent (10 uM): 0 min
# Description: • ACN: acetonitrile • CC: calibration curve • IS: internal standard • DMSO: dimethylsulfoxide • MRM: multiple reaction monitoring • […]: nicotinamide adenine dinucleotide phosphate (reduced) • Rpm: revolution per minute Liver Microsomes • Rat liver microsomes (male, pooled, Sprague Dawley) • Source: XenoTech, LLC (Kansas, USA) • Protein content: 20 mg/mL • Catalogue number: R I 000, Lot number: 0710623 • Dog liver microsomes (male, pooled, Beagle) • Source: XenoTech, LLC (Kansas, USA) • Protein content: 20 mg|mL • Catalogue number: D I 000, Lot number: 0810143 • Human liver microsomes (mixed gender, pooled) • Source: XenoTech, LLC (Kansas, USA) • Protein content: 20 mg|mL • Catalogue number: H061 0, Lot number: 101042 Stock Solutions and Reagents Test Item
# as §3, §4
# Samples were processed using protein precipitation method and then analyzed by employing linear gradient with a run time of 28 min in HPLC coupled with tandem mass spectrometry (API 4000 mass spectrometer). Each sample was injected and scanned separately for Q1 (MH+/MH−) and MS/MS.
# The different possible metabolite peaks were identified in Q1 scan after assessing for matrix interference using test item free blank samples, and were confirmed from the fragmentation pattern (MSIMS scan).
# An alternate analytical method was also developed to increase the retention times and to assess other metabolites apart from the identified M-1 metabolite. Aqueous solutions of 1-(6-amino-5-bromo-2-(1H-pyrazol-1-yl)pyrimidin-4-yl)-1H-pyrazol-4-ol and 1-(4-amino-5-bromo-6-(1H-pyrazol-1-yl)pyrimidin-2-yl)-1H-pyrazol-4-ol (1 uM) were co-chromatographed with the in vitro incubated samples employing modified analytical method to confirm the identity.
# [7] = human liver microsomes, parent 10 uM, 0 min, Set-1
# [8] = human liver microsomes, parent 10 uM, 0 min, Set-2
# [9] = human liver microsomes, parent 10 uM, 30 min, Set-1
# [10] = human liver microsomes, parent 10 uM, 30 min, Set-2
# [11] = human liver microsomes, parent 10 uM, 60 min, Set-1
# [12] = human liver microsomes, parent 10 uM, 60 min, Set-2
# T1 sequence (P29274 whole entry): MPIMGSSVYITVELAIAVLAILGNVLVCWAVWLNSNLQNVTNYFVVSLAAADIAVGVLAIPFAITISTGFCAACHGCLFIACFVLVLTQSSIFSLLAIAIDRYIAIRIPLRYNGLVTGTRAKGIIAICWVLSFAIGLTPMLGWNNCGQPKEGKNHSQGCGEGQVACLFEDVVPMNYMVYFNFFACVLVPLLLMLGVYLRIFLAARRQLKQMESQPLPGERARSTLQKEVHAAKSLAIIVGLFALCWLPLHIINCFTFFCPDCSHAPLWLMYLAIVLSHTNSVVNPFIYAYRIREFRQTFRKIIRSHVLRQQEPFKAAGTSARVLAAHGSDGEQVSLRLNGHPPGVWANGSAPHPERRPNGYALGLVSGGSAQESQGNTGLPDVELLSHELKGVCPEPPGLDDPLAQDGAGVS
smiles,measurement,setting,value
O=C(O)Cc1ccccc1Nc1c(Cl)cccc1Cl [Diclofenac],% remaining,"[1]; 0 h, 0.5 uM",100%
same,% remaining,"[1]; 1 h, 0.5 uM",12%
same,% remaining,"[2]; both, human, microsomes, 0 h, 0.5 uM",100%
same,% remaining,"[2]; both, human, microsomes, 1 h, 0.5 uM",100%
"Nc1nc(-n2cc(O)cn2)nc(-n2cccn2)c1Br [Example 1, 1-(4-amino-5-bromo-6-(1H-pyrazol-1-yl)pyrimidin-2-yl)-1H-pyrazol-4-ol]",Ki,[3],50 nM
same,percentage of M-I metabolite in human liver microsomes,"[4]; after 60 minutes of incubation with parent, % of the parent",15-20%
same,% M-I detected,[4]; [7],0%
same,M-I Concentration,[4]; [7],0 µM
same,% M-I detected,[4]; [8],0%
same,M-I Concentration,[4]; [8],0 µM
same,% M-I detected,[4]; [9],10.95%
same,M-I Concentration,[4]; [9],1.29 µM
same,% M-I detected,[4]; [10],7.97%
same,M-I Concentration,[4]; [10],0.92 µM
same,% M-I detected,[4]; [11],18.93%
same,M-I Concentration,[4]; [11],2.23 µM
same,% M-I detected,[4]; [12],15.08%
same,M-I Concentration,[4]; [12],1.74 µM
same,percentage of metabolite with respect to parent,"[5]; rat, dog and human liver microsomes, assumes equal ionization efficiency",uniformly low
same,Percentage area ratio with respect to parent (10 uM),"[6]; male, Beagle, dog",0.01%
"Nc1nc(-n2cccn2)nc(-n2cccn2)c1Br [Parent, 5-bromo-2,6-di(1H-pyrazol-1-yl)pyrimindin-4-amine]",% parent Remaining,[4]; [7],100%
same,Parent Concentration,[4]; [7],11.78^a uM
same,% parent Remaining,[4]; [9],96.26%
same,Mass balance,[4]; [9],107.22%
same,Parent Concentration,[4]; [9],11.34^a uM
same,% parent Remaining,[4]; [11],88%
same,Mass balance,[4]; [11],107.81%
same,Parent Concentration,[4]; [11],10.47^a uM
same,Parent Concentration,"[4]; human, 0 min, 10 uM",11.54^a uM
same,Mass balance,"[4]; human, 30 min, 10 uM",95.41%
same,Parent Concentration,"[4]; human, 30 min, 10 uM",10.09^a uM
same,Mass balance,"[4]; human, 60 min, 10 uM",94.63%
same,Parent Concentration,"[4]; human, 60 min, 10 uM",9.18 µM
same,% parent Remaining,"[4]; human, microsomes, 0 h, 10 uM",100%
same,% parent Remaining,"[4]; human, microsomes, 0.5 h, 10 uM",87.44%
same,% parent Remaining,"[4]; human, microsomes, 1 h, 10 uM",79.55%
same,mass balance for the metabolism in human liver microsomes,[4]; text summary of Table 7,95 to 107%
same,% remaining,"[1]; 0 h, 1 uM",100%
same,relative metabolism across tested species,"[5]; 1 uM, 0.3 mg/mL microsomal protein, DLM, HLM, RLM = dog, human, rat liver microsomes",DLM>HLM>RLM
same,stability in control incubations (no NADPH added),"[5]; liver microsomes, indicating no non-CYP mediated metabolism",stable up to 120 min
same,% metabolism of parent at 120 min,"[2]; both, human, 1 uM",76%
same,% remaining,"[2]; both, human, microsomes, 0 h, 1 uM",100%
same,% metabolism of parent at 120 min,"[2]; human, 1 uM",78%
same,% metabolism of parent at 120 min,"[2]; male, Beagle, dog, 1 uM",83%
same,% remaining,"[2]; male, Beagle, dog, microsomes, 0 h, 1 uM",100%
same,Concentration of Analyte metabolized,"[2]; male, Beagle, dog, microsomes, 2 h, 1 uM",830 nM
same,Percentage area ratio with respect to parent (10 uM),"[6]; both, human",100%
same,Percentage area ratio with respect to parent (10 uM),"[6]; male, Beagle, dog",100%
same,Percentage area ratio with respect to parent (10 uM),"[6]; male, Sprague Dawley, rat",100%
same,% metabolism of parent at 120 min,"[6]; male, Sprague Dawley, rat, 120 min, 10 uM",0%
same,Concentration of Analyte metabolized,"[6]; male, Sprague Dawley, rat, microsomes, 2 h, 10 uM",0 nM

# — patent US11078191B2, “1-(4-amino-5-bromo-6-(1H-pyrazol-1-yl)pyrimidin-2-yl)-1H-pyrazol-4-ol and use thereof in the treatment of cancer” (Novartis AG, priority 2017, dated 2021)
